From BindingDB's records for patent US20250115607 (Hoffmann-La Roche, 2025)

How the values were obtained:
Assay in all cases: Phosphorylation Assay SIK1-3
[1] = target: Serine/threonine-protein kinase SIK3 (Homo sapiens, UniProt Q9Y2K2)
Experimental: (§1) In the presence of SIK2 (resp. SIK1 or SIK3) and ATP the CHK-peptide ([…] with C-terminal arginine amide modification) were phosphorylated at one of the four feasible serine's. Only one phosphorylation is observed under the assay conditions. 60 nl of each compound dilution series (12 point; dilution factor 3, generally 30 μM to 170 pM) in DMSO were transferred by acoustic dispensing to the assay plate and 30 minutes pre-incubated (ambient temperature) after the addition of 5 μl SIK1 (5 nM) resp. 5 μl SIK2 (0.5 nM) or 7 μl SIK3 (1.5 nM) in assay-buffer (12.5 mM HEPES (pH 7.0), 10 mM magnesium acetate, 0.005% BSA). 10 μM CHK-peptide solution and 5 μl of 100 μM ATP for SIK1 & SIK2 resp. 3 μl for SIK3 in assay-buffer were added and incubated ambient for 45 minutes. 40 μl of 0.125% formic acid in water were added to quench the reaction. RapidFire (RF) Mass Spectrometry was utilized for data generation as described below. The multiple charged species (3-5 charges) for the phosphorylated and non-phosphorylated form measured by MRM (Multiple Reaction Monitoring; API5000 or 6500+) or EIC (Extracted Ion Current; QToF) were summed up and the ratio calculated (sum phosphorylated species/sum all species) for data evaluation. Normalization was performed by Genedata software based on the non-inhibition control DMSO and the commercially available STK inhibitor @1 μM YKL-05-099 (CAS number 1936529-65-5).

[2] = target: Serine/threonine-protein kinase SIK2 (Homo sapiens, UniProt Q9H0K1)
Serine/threonine-protein kinase SIK2, sequence (Q9H0K1 whole entry): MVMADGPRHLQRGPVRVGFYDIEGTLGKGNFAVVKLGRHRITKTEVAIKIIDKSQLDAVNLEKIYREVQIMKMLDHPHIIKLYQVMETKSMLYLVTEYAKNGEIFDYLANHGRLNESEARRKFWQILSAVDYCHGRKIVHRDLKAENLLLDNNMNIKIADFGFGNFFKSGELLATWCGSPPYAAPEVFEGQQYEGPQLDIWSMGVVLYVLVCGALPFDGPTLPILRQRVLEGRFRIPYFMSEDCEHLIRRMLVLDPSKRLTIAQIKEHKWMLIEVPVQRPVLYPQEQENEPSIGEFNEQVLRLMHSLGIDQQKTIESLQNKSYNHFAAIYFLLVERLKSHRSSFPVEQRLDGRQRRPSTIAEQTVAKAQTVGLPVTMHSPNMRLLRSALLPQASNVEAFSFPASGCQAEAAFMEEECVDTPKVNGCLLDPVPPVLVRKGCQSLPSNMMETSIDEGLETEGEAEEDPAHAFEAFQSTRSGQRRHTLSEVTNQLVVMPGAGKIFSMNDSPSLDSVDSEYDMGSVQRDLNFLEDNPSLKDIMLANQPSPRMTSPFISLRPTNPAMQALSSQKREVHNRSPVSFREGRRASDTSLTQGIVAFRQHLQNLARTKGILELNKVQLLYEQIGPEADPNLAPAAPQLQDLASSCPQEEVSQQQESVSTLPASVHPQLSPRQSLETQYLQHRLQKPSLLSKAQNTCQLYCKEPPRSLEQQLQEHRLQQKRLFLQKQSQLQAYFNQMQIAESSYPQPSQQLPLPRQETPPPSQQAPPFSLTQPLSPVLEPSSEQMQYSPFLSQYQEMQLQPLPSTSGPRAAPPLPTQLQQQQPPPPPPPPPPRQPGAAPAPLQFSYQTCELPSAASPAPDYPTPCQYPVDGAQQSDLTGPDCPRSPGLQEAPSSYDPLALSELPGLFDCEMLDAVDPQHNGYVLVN
Experimental: as §1

[3] = target: Serine/threonine-protein kinase SIK1 (Homo sapiens, UniProt P57059)
Serine/threonine-protein kinase SIK1, sequence (P57059 whole entry): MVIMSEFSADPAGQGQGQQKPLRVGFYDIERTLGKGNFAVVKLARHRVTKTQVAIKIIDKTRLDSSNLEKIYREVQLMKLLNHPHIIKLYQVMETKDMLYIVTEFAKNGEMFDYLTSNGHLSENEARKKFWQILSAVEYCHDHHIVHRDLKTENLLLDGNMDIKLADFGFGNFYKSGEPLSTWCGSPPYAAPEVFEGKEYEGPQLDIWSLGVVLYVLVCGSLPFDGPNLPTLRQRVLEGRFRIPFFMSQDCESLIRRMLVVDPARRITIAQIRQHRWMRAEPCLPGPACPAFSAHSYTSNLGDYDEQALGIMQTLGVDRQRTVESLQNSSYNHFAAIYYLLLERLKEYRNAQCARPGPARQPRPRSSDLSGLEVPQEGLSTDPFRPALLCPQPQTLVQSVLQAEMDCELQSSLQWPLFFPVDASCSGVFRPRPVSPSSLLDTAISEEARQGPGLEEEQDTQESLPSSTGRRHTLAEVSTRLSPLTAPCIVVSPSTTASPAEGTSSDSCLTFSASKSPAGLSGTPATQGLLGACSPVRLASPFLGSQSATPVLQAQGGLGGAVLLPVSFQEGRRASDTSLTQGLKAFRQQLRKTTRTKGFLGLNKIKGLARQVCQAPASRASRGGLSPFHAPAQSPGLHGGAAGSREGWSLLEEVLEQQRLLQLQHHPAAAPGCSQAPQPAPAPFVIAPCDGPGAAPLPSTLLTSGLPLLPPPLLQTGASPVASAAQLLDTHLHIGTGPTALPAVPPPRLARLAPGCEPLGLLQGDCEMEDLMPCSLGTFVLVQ
Experimental: as §1

Serine/threonine-protein kinase SIK3, sequence (Q9Y2K2 whole entry): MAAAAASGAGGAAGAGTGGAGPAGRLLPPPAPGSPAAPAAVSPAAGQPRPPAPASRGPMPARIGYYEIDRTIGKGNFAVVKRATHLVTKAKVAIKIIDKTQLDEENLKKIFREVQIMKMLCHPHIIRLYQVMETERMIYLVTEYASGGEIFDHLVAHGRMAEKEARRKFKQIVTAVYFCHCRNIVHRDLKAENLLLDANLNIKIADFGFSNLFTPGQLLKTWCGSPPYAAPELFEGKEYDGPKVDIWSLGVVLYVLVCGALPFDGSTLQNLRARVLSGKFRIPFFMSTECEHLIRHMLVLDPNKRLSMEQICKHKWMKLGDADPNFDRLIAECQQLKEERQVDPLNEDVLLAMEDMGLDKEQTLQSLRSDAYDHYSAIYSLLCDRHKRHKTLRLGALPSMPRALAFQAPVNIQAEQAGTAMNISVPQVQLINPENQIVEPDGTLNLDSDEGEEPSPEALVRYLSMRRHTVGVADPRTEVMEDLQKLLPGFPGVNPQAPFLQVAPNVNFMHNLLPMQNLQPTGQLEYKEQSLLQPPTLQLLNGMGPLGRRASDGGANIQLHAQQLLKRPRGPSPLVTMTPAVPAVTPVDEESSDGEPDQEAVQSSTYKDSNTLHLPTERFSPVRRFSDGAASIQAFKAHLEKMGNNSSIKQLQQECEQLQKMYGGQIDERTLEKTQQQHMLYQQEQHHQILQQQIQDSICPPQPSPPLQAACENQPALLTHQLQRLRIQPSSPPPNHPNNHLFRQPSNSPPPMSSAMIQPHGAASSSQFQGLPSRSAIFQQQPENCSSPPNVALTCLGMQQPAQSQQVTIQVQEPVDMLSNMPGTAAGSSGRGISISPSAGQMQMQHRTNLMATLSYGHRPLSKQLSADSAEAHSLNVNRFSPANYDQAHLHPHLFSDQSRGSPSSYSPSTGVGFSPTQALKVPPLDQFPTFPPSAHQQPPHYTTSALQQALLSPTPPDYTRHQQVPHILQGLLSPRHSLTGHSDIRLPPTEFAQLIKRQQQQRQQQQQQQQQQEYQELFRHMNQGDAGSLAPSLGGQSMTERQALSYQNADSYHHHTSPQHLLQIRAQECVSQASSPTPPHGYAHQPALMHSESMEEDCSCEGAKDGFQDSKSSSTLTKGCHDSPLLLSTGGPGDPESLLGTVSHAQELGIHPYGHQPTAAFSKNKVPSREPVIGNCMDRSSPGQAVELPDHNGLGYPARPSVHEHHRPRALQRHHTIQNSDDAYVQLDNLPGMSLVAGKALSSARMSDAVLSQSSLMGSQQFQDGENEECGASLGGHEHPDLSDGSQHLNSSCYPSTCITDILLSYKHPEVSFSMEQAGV

`CC(=O)c1ccc(-n2cnc3cc(N(C)c4ccc(C)nn4)ncc32)nc1-n1nc(C#N)cc1C` [US20250115607, Example 5] showed an IC50 [1] of 2.06 µM, an IC50 [2] of 0.687 µM and an IC50 [3] of 19 µM.
